# In patent US5204352A, “Compounds exhibiting anti-parasitic activity and a method for their use” (The United States of America as represented by the …, priority 1987, dated 1993):
# System: Trypanosoma rhodesiense
# Assay: In vivo trypanocidal activity in infected mice (protocol based on Rane et al.)
# Set-up: Activity at dosage, value in parentheses (increase in survival): unit not given here
# Settings: for Increase in survival / Trypanocidal activity, cures: subcutaneous; for Activity at dosage (C = Cures) / Activity at dosage, value in parentheses (increase in survival): peritoneal (Table 2)
# Protocol: The compounds of the present invention were evaluated biologically in vivo with groups of 5 mice at various dose levels. Unless otherwise indicated, the data are for subcutaneous administration. Dose levels marked with an asterisk are for peritoneal administration in a HEC+T medium. In addition, Table 2 present results of peritoneal administration with substituted quanylhydrazones. The biological evaluation was done according to a standard protocol based on the method described by Rane et al., Amer. J. Trop. Med Hyg. 25:395 (1976). […]
structure (smiles),measurement,setting,value
C[n+]1c(-c2ccc(C(=N)N)cc2)cn2cc(C(=N)N)ccc21 [BK42748],Increase in survival,26.5 mg/kg,2.3 days
same,"Trypanocidal activity, cures",26.5 mg/kg,2/5
same,Increase in survival,53 mg/kg,3.0 days
same,"Trypanocidal activity, cures",53 mg/kg,2/5
C[n+]1c(-c2ccc(C(=N)N)cc2)c([N+](=O)[O-])n2ccccc21 [BK42757],Increase in survival,53 mg/kg,2.5 days
same,"Trypanocidal activity, cures",53 mg/kg,1/5
same,Increase in survival,106 mg/kg,3.0 days
same,"Trypanocidal activity, cures",106 mg/kg,1/5
Cc1ccc2n(c1)cc(-c1ccc(C(=N)N)cc1)[n+]2C [BK46166],Increase in survival,26.5 mg/kg,4.5 days
same,"Trypanocidal activity, cures",26.5 mg/kg,2/5
same,Increase in survival,53 mg/kg,1.6 days
same,"Trypanocidal activity, cures",53 mg/kg,2/5
same,Increase in survival,106 mg/kg,5.2 days
same,"Trypanocidal activity, cures",106 mg/kg,2/5
CCN(CC)CCN=C(N)NN=Cc1ccc(-c2cn3ccccc3[n+]2C)cc1 [BK46175],Increase in survival,"0.83 mg/kg, (F)",3.3 days
same,"Trypanocidal activity, cures","0.83 mg/kg, (F)",2/5
same,Increase in survival,"0.83 mg/kg, M",6.3 days
C[n+]1c(-c2ccc(C(N)=NO)cc2)cn2cc(Cl)ccc21 [BK46193],Increase in survival,106 mg/kg,5.2 days
same,"Trypanocidal activity, cures",106 mg/kg,1/5
same,Increase in survival,212 mg/kg,2.9 days
same,"Trypanocidal activity, cures",212 mg/kg,4/5
CN=C(N)NN=Cc1ccc(-c2cn3ccccc3[n+]2C)cc1 [BK46200],"Trypanocidal activity, cures","0.85-1.66 mg/kg, (M)",5/5
same,"Trypanocidal activity, cures","3.33-6.65 mg/kg, (F)",5/5
Cc1ccn2cc(-c3ccc(C=NNC(=N)N)cc3)[n+](C)c2c1 [BK46219],Increase in survival,26.5 mg/kg,10.0 days
same,"Trypanocidal activity, cures",26.5 mg/kg,8/10
CSC(=N)NN=Cc1ccc(-c2cn3ccccc3[n+]2C)cc1 [BK47921],"Trypanocidal activity, cures",26.5 mg/kg,5/5
CN=C(N)NN=Cc1ccc(-c2c([N+](=O)[O-])n3ccccc3[n+]2C)cc1 [BK47958],Increase in survival,1.66 mg/kg,3.0 days
same,"Trypanocidal activity, cures",1.66 mg/kg,8/10
CN=C(N)NN=Cc1ccc(-c2cn3ccsc3[n+]2C)cc1 [BK47967],"Trypanocidal activity, cures",6.66 mg/kg,5/5
CN(C)C(=N)NN=Cc1ccc(-c2cn3ccccc3[n+]2C)cc1 [BK47976],"Trypanocidal activity, cures",6.66 mg/kg,5/5
C[n+]1c(-c2ccc(C=NNC(=N)N)cc2)c([N+](=O)[O-])n2ccccc21 [BK47985],Increase in survival,1.6 mg/kg,7.0 days
same,"Trypanocidal activity, cures",1.6 mg/kg,3/10
same,"Trypanocidal activity, cures",3.3 mg/kg,5/5
same,Increase in survival,6.6 mg/kg,24.0 days
same,"Trypanocidal activity, cures",6.6 mg/kg,4/5
CN(C)C(=N)NN=Cc1ccc(-c2c([N+](=O)[O-])n3ccccc3[n+]2C)cc1 [BK50268],Activity at dosage (C = Cures),3.3 mg/kg,INAC
same,Activity at dosage (C = Cures),6.7 mg/kg,INAC
same,"Activity at dosage, value in parentheses (increase in survival)",13 mg/kg,4.5
same,"Activity at dosage, value in parentheses (increase in survival)",26 mg/kg,5.0
same,"Activity at dosage, value in parentheses (increase in survival)",53 mg/kg,9.9
same,"Activity at dosage, value in parentheses (increase in survival)",106 mg/kg,12.5
C[n+]1c(-c2ccc(C=NNC(=N)N3CCCC3)cc2)cn2ccccc21 [BK50277],"Trypanocidal activity, cures",0.1 mg/kg,5/5
same,"Trypanocidal activity, cures",0.2 mg/kg,4/5
same,"Trypanocidal activity, cures",0.4 mg/kg,5/5
same,"Trypanocidal activity, cures",0.8 mg/kg,9/10
same,"Trypanocidal activity, cures",1.7 mg/kg,10/10
same,"Trypanocidal activity, cures",3.3 mg/kg,5/5
C[n+]1c(-c2ccc(C=NNc3nccs3)cc2)cn2ccccc21 [BK50302],Increase in survival,0.2 mg/kg,2.0 days
same,"Trypanocidal activity, cures",0.2 mg/kg,3/5
same,"Trypanocidal activity, cures",0.4 mg/kg,5/5
same,Increase in survival,0.8 mg/kg,15.0 days
same,"Trypanocidal activity, cures",0.8 mg/kg,4/5
same,Activity at dosage (C = Cures),106 mg/kg,INAC
same,Activity at dosage (C = Cures),212 mg/kg,INAC
same,Activity at dosage (C = Cures),424 mg/kg,INAC
